{"source": "paper PMC7366380", "about": "“Discovery of a Potent and Selective Covalent Inhibitor and Activity-Based Probe for the Deubiquitylating Enzyme UCHL1, with Antifibrotic Activity” (Journal of the American Chemical Society, 2020)", "experiment_in_all_cases": "In-cell proteome-wide competitive ABPP, HEK293: other DUBs and proteins", "key": {"[1]": {"target": "DUBs and other proteins in HEK293 cells (Homo sapiens, UniProt Q93009)", "sequence (Q93009 whole entry)": "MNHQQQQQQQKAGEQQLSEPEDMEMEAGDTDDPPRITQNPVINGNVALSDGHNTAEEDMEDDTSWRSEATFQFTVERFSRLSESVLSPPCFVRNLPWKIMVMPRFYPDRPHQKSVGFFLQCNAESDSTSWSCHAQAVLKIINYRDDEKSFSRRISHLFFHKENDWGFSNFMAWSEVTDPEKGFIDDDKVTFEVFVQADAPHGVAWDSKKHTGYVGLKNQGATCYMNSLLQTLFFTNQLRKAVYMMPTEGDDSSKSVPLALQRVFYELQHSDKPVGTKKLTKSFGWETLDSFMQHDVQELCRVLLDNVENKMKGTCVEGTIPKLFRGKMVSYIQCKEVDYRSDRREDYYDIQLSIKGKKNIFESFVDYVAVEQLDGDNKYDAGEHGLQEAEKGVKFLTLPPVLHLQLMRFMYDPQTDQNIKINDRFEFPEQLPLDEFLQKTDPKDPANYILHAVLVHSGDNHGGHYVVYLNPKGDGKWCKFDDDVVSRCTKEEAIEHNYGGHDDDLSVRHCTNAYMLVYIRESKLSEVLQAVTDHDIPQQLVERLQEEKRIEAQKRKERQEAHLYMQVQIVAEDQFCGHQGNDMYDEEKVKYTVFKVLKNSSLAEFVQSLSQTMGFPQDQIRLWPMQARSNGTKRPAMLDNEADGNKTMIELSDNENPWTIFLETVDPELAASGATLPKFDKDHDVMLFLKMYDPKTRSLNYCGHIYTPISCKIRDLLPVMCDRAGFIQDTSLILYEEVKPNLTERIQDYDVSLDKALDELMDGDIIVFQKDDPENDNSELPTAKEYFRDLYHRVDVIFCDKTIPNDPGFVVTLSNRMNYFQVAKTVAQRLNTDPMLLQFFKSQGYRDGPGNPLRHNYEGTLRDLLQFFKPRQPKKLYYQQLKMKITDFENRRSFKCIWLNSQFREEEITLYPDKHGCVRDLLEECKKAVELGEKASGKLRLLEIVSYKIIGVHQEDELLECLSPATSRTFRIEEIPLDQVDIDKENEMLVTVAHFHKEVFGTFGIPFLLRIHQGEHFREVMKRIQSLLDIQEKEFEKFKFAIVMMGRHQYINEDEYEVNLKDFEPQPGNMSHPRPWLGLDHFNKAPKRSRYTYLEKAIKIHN", "conditions": "replicates A-C; for Log2 reporter intensity values: USP7: competition with ABP 2, DMSO substract (FC); for Log2 reporter intensity values: USP7, DMSO subtracted"}, "[2]": {"target": "T1, DUBs and other proteins in HEK293 cells (Homo sapiens, UniProt Q9Y5K5)", "T1 sequence (Q9Y5K5 1-329)": "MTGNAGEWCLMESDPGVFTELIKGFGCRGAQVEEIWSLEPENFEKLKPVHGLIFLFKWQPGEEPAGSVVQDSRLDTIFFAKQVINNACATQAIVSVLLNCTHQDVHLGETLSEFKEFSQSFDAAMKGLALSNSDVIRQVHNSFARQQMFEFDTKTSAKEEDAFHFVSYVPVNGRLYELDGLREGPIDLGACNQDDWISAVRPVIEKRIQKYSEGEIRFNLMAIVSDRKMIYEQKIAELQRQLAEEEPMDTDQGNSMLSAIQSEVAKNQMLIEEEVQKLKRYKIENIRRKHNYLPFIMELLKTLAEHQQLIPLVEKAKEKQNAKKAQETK", "conditions": "replicates A-C; for Log2 reporter intensity values: UCHL5: competition with ABP 2, DMSO substract (FC); for Log2 reporter intensity values: UCHL5, DMSO subtracted"}, "[3]": {"target": "DUBs and other proteins in HEK293 cells (Homo sapiens, UniProt O15372)", "sequence (O15372 whole entry)": "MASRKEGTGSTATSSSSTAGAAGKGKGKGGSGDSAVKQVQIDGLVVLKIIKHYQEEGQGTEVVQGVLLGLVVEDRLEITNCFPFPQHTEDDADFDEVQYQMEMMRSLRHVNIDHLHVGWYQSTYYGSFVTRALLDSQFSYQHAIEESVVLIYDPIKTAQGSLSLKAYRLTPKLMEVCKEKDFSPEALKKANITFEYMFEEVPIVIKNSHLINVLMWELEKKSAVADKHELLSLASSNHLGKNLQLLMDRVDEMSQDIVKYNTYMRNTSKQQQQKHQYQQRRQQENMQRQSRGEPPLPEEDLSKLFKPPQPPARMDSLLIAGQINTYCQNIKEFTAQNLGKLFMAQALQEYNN", "conditions": "for Log2 reporter intensity values, EIF3H: TMT replicates; for Log2 reporter intensity values / Log2 reporter intensity values: EIF3H: replicates A-C; for Log2 reporter intensity values: EIF3H: competition with ABP 2, DMSO substract (FC)"}, "[4]": {"target": "DUBs and other proteins in HEK293 cells (Homo sapiens, UniProt O00487)", "sequence (O00487 whole entry)": "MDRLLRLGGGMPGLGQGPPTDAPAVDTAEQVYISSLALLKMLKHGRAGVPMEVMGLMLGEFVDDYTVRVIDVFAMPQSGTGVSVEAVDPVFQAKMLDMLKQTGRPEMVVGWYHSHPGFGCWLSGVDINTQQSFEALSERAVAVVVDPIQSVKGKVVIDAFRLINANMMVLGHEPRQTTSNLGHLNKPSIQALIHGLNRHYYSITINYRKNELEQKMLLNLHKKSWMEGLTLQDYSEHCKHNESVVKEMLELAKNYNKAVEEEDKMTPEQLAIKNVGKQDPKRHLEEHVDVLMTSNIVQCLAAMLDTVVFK", "conditions": "replicates A-C; for Log2 reporter intensity values: PSMD14: competition with ABP 2, DMSO substract (FC); for Log2 reporter intensity values: PSMD14, DMSO subtracted"}, "[5]": {"target": "DUBs and other proteins in HEK293 cells (Homo sapiens, UniProt P54578)", "sequence (P54578 whole entry)": "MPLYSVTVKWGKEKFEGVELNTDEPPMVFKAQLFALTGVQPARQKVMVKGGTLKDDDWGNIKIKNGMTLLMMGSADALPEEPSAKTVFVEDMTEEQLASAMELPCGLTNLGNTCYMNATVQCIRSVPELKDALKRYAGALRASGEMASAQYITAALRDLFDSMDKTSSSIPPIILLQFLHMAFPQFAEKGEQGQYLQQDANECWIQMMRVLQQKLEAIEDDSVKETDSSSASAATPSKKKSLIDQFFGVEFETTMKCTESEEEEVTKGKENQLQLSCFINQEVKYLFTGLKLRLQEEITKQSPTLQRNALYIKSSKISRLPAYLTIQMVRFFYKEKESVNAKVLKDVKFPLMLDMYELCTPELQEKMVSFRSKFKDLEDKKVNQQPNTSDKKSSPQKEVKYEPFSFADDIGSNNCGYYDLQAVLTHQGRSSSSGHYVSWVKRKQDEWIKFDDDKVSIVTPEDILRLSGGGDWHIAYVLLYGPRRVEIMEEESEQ", "conditions": "replicates A-C; for Log2 reporter intensity values: USP14: competition with ABP 2, DMSO substract (FC); for Log2 reporter intensity values: USP14, DMSO subtracted"}, "[6]": {"target": "DUBs and other proteins in HEK293 cells (Homo sapiens, UniProt Q92905)", "sequence (Q92905 whole entry)": "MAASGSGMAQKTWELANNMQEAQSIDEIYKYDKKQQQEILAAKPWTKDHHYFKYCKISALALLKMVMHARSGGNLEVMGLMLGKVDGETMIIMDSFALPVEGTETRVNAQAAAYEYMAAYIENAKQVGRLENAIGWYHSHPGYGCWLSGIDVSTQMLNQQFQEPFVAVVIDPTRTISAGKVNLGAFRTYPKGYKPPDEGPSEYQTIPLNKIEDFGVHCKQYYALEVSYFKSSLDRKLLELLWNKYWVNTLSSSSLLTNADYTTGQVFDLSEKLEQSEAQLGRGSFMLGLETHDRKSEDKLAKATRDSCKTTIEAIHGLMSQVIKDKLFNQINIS", "conditions": "for Log2 reporter intensity values, COPS5: TMT replicates; for Log2 reporter intensity values / Log2 reporter intensity values: COPS5: replicates A-C; for Log2 reporter intensity values: COPS5: competition with ABP 2, DMSO substract (FC)"}, "[7]": {"target": "T2, DUBs and other proteins in HEK293 cells (Homo sapiens, UniProt Q9Y4E8)", "T2 sequence (Q9Y4E8 1-981)": "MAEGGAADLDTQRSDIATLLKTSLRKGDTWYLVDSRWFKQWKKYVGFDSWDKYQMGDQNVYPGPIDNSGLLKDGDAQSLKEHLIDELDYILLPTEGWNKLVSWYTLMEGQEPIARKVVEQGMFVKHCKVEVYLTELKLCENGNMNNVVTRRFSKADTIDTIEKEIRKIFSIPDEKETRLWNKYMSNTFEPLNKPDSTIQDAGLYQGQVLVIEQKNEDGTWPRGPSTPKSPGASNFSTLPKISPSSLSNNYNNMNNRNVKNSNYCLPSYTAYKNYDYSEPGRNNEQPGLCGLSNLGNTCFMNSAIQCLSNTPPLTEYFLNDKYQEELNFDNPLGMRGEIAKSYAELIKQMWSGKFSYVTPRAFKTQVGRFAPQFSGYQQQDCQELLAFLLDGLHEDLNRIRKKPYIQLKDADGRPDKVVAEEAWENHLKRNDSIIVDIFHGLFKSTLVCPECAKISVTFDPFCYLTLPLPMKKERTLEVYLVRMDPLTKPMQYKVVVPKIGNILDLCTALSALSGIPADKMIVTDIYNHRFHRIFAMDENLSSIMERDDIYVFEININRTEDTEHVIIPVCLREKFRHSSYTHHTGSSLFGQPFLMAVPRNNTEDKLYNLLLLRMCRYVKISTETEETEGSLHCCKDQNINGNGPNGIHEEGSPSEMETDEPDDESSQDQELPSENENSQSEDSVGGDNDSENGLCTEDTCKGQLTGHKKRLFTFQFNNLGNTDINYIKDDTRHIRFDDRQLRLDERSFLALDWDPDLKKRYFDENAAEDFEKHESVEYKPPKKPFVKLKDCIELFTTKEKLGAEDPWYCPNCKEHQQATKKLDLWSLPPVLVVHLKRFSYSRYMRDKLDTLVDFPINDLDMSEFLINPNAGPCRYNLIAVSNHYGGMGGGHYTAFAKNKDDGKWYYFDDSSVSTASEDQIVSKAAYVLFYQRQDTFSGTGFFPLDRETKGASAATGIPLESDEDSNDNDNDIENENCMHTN", "conditions": "replicates A-C; for Log2 reporter intensity values: USP15: competition with ABP 2, DMSO substract (FC); for Log2 reporter intensity values: USP15, DMSO subtracted"}, "[8]": {"conditions": "5 μM LDN-57444 (60 min) + 20 nM ABP 2 (10 min), All values"}, "[9]": {"conditions": "5 μM LDN-57444 (60 min) + 20 nM ABP 2 (10 min), DMSO subtracted"}, "[10]": {"conditions": "25 μM LDN-57444 (60 min) + 20 nM ABP 2 (10 min), All values"}, "[11]": {"conditions": "25 μM LDN-57444 (60 min) + 20 nM ABP 2 (10 min), DMSO subtracted"}}, "note": "“And” between values parts separate entries of the source, which are not always exact repeats. Equal values may be shown once."}
{"smiles": "CC(=O)O/N=C1\\C(=O)N(Cc2cc(Cl)ccc2Cl)c2ccc(Cl)cc21", "note": "[LDN]", "values": [{"measurement": "Log2 reporter intensity values: USP7", "setting": "[1]; LDN at 5 μM", "result": "1.02 and 1.001 and 1.029"}, {"measurement": "Log2 reporter intensity values: USP7", "setting": "[1]; LDN at 25 μM", "result": "0.9945 and 1.07 and 1.065"}, {"measurement": "Log2 reporter intensity values", "setting": "[1]; LDN at 5 μM", "result": "0.02794 and 0.001316 and 0.0413"}, {"measurement": "Log2 reporter intensity values", "setting": "[1]; LDN at 25 μM", "result": "-0.007921 and 0.09748 and 0.09021"}, {"measurement": "Log2 reporter intensity values", "setting": "[1]; LDN_5 μM", "result": "0.01927 and 0.0006308 and 0.02876"}, {"measurement": "Log2 reporter intensity values", "setting": "[1]; LDN_25 μM", "result": "-0.005757 and 0.06962 and 0.06425"}, {"measurement": "Log2 reporter intensity values: UCHL5", "setting": "[2]; LDN at 5 μM", "result": "1.097 and 1.066 and 1.089"}, {"measurement": "Log2 reporter intensity values: UCHL5", "setting": "[2]; LDN at 25 μM", "result": "0.9397 and 0.9601 and 0.908"}, {"measurement": "Log2 reporter intensity values", "setting": "[2]; LDN at 5 μM", "result": "0.134 and 0.09247 and 0.1227"}, {"measurement": "Log2 reporter intensity values", "setting": "[2]; LDN at 25 μM", "result": "-0.08966 and -0.05875 and -0.1393"}, {"measurement": "Log2 reporter intensity values", "setting": "[2]; LDN_5 μM", "result": "0.09668 and 0.06552 and 0.08811"}, {"measurement": "Log2 reporter intensity values", "setting": "[2]; LDN_25 μM", "result": "-0.06093 and -0.04058 and -0.09272"}, {"measurement": "Log2 reporter intensity values, EIF3H", "setting": "[3]; [8]", "result": "0.06362 and 0.03651 and 0.05305"}, {"measurement": "Log2 reporter intensity values, EIF3H", "setting": "[3]; [9]", "result": "0.03403 and 0.006918 and 0.02346"}, {"measurement": "Log2 reporter intensity values, EIF3H", "setting": "[3]; [10]", "result": "0.05041 and 0.03867 and 0.01604"}, {"measurement": "Log2 reporter intensity values, EIF3H", "setting": "[3]; [11]", "result": "0.02082 and 0.009076 and -0.01355"}, {"measurement": "Log2 t-test Difference", "setting": "[3]; EIF3H, LDN - 5 μM", "result": 0.02512}, {"measurement": "Log2 reporter intensity values", "setting": "[3]; EIF3H, LDN at 5 μM, DMSO subtracted", "result": "0.03403 and 0.006918 and 0.02346"}, {"measurement": "Log2 reporter intensity values", "setting": "[3]; EIF3H, LDN at 25 μM, DMSO subtracted", "result": "0.02082 and 0.009076 and -0.01355"}, {"measurement": "Log2 reporter intensity values", "setting": "[3]; EIF3H, LDN_5 μM, DMSO subtracted", "result": "0.02373 and 0.004663 and 0.01625"}, {"measurement": "Log2 reporter intensity values", "setting": "[3]; EIF3H, LDN_25 μM, DMSO subtracted", "result": "0.01439 and 0.006167 and -0.009494"}, {"measurement": "Log2 reporter intensity values: EIF3H", "setting": "[3]; LDN at 5 μM", "result": "1.024 and 1.005 and 1.016"}, {"measurement": "Log2 reporter intensity values: EIF3H", "setting": "[3]; LDN at 25 μM", "result": "1.015 and 1.006 and 0.9907"}, {"measurement": "Log2 reporter intensity values: PSMD14", "setting": "[4]; LDN at 5 μM", "result": "1.1 and 1.114 and 0.9966"}, {"measurement": "Log2 reporter intensity values: PSMD14", "setting": "[4]; LDN at 25 μM", "result": "0.9804 and 1.072 and 1.068"}, {"measurement": "Log2 reporter intensity values", "setting": "[4]; LDN at 5 μM", "result": "0.1369 and 0.1555 and -0.004904"}, {"measurement": "Log2 reporter intensity values", "setting": "[4]; LDN at 25 μM", "result": "-0.02853 and 0.1005 and 0.09452"}, {"measurement": "Log2 reporter intensity values", "setting": "[4]; LDN_5 μM", "result": "0.09685 and 0.1112 and -0.006053"}, {"measurement": "Log2 reporter intensity values", "setting": "[4]; LDN_25 μM", "result": "-0.02224 and 0.06945 and 0.06505"}, {"measurement": "Log2 reporter intensity values: USP14", "setting": "[5]; LDN at 5 μM", "result": "1.178 and 1.18 and 1.165"}, {"measurement": "Log2 reporter intensity values: USP14", "setting": "[5]; LDN at 25 μM", "result": "1.092 and 1.124 and 1.125"}, {"measurement": "Log2 reporter intensity values", "setting": "[5]; LDN at 5 μM", "result": "0.2361 and 0.2386 and 0.2201"}, {"measurement": "Log2 reporter intensity values", "setting": "[5]; LDN at 25 μM", "result": "0.1275 and 0.1688 and 0.1694"}, {"measurement": "Log2 reporter intensity values", "setting": "[5]; LDN_5 μM", "result": "0.1776 and 0.1796 and 0.1646"}, {"measurement": "Log2 reporter intensity values", "setting": "[5]; LDN_25 μM", "result": "0.0922 and 0.1239 and 0.1243"}, {"measurement": "Log2 reporter intensity values, COPS5", "setting": "[6]; [8]", "result": "0.02618 and -0.0337 and -0.04942"}, {"measurement": "Log2 reporter intensity values, COPS5", "setting": "[6]; [9]", "result": "0.0843 and 0.02441 and 0.00869"}, {"measurement": "Log2 reporter intensity values, COPS5", "setting": "[6]; [10]", "result": "0.09342 and -0.06531 and -0.07503"}, {"measurement": "Log2 reporter intensity values, COPS5", "setting": "[6]; [11]", "result": "0.1515 and -0.007194 and -0.01692"}, {"measurement": "Log2 t-test Difference", "setting": "[6]; COPS5, LDN - 5 μM", "result": -0.1232}, {"measurement": "Log2 reporter intensity values", "setting": "[6]; COPS5, LDN at 5 μM, DMSO subtracted", "result": "0.0843 and 0.02441 and 0.00869"}, {"measurement": "Log2 reporter intensity values", "setting": "[6]; COPS5, LDN at 25 μM, DMSO subtracted", "result": "0.1515 and -0.007194 and -0.01692"}, {"measurement": "Log2 reporter intensity values", "setting": "[6]; COPS5, LDN_5 μM, DMSO subtracted", "result": "0.06009 and 0.01698 and 0.005959"}, {"measurement": "Log2 reporter intensity values", "setting": "[6]; COPS5, LDN_25 μM, DMSO subtracted", "result": "0.1107 and -0.005057 and -0.01174"}, {"measurement": "Log2 reporter intensity values: COPS5", "setting": "[6]; LDN at 5 μM", "result": "1.06 and 1.017 and 1.006"}, {"measurement": "Log2 reporter intensity values: COPS5", "setting": "[6]; LDN at 25 μM", "result": "1.111 and 0.995 and 0.9883"}, {"measurement": "Log2 reporter intensity values: USP15", "setting": "[7]; LDN at 5 μM", "result": "1.005 and 0.9596 and 1.069"}, {"measurement": "Log2 reporter intensity values: USP15", "setting": "[7]; LDN at 25 μM", "result": "1.047 and 0.9593 and 0.9363"}, {"measurement": "Log2 reporter intensity values", "setting": "[7]; LDN at 5 μM", "result": "0.007561 and -0.05945 and 0.09653"}, {"measurement": "Log2 reporter intensity values", "setting": "[7]; LDN at 25 μM", "result": "0.06615 and -0.06 and -0.09494"}, {"measurement": "Log2 reporter intensity values", "setting": "[7]; LDN_5 μM", "result": "0.004993 and -0.04063 and 0.06894"}, {"measurement": "Log2 reporter intensity values", "setting": "[7]; LDN_25 μM", "result": "0.04666 and -0.041 and -0.06395"}]}
